Source: ChEMBL document CHEMBL1201861, “Genomics of Drug Sensitity in Cancer screening data, Wellcome Trust Sanger Institute”

Columns and labels:
Assay in all cases: cells
Settings in all cases: Homo sapiens
CTB-1 = assay type: functional, cell-based
Description: SANGER: Inhibition of human CTB-1 cell growth in a cell viability assay.

CTV-1 = assay type: functional, cell-based;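 further: growth inhibition of the cell line, read out with a cell viability assay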
Description: SANGER: Inhibition of human CTV-1 cell growth in a cell viability assay.

Calu-6 = assay type: functional, cell-based;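 further: growth of human Calu-6 cells, read out by a cell viability assay, IC50 marking inhibition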
Description: SANGER: Inhibition of human Calu-6 cell growth in a cell viability assay.

D283 Med = assay type: functional, cell-based
Description: SANGER: Inhibition of human D-283MED cell growth in a cell viability assay.

D-502MG = assay type: functional, cell-based
Description: SANGER: Inhibition of human D-502MG cell growth in a cell viability assay.

DMS-114 = assay type: functional, cell-based
DMS-79 = assay type: functional, cell-based;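 further: growth inhibition measured with a cell viability assay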
Description: SANGER: Inhibition of human DMS-79 cell growth in a cell viability assay.

DU-4475 = assay type: functional, cell-based
Description: SANGER: Inhibition of human DU-4475 cell growth in a cell viability assay.

EC-GI-10 = assay type: functional, cell-based
Description: SANGER: Inhibition of human EC-GI-10 cell growth in a cell viability assay.

ES3 = assay type: functional, cell-based;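 further: growth inhibition of ES3 cells, read out with a cell viability assay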
Description: SANGER: Inhibition of human ES3 cell growth in a cell viability assay.

ES5 = assay type: functional, cell-based;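 further: growth inhibition of human ES5 cells, read out by a cell viability assay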
Description: SANGER: Inhibition of human ES5 cell growth in a cell viability assay.

EW-24 = assay type: functional, cell-based;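 further: human EW-24 cancer cell line, growth inhibition read out via a cell viability assay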
Description: SANGER: Inhibition of human EW-24 cell growth in a cell viability assay.

EOL1 = assay type: functional, cell-based;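 further: growth inhibition of EoL-1 cells, read out by a cell viability assay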
Description: SANGER: Inhibition of human EoL-1-cell cell growth in a cell viability assay.

GCIY = assay type: functional, cell-based;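 further: growth inhibition of the human GCIY cell line, read out by a cell viability assay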
Description: SANGER: Inhibition of human GCIY cell growth in a cell viability assay.

GOTO = assay type: functional, cell-based;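 further: growth inhibition of GOTO cells, read out by a cell viability assay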
Description: SANGER: Inhibition of human GOTO cell growth in a cell viability assay.

HCC1187 = assay type: functional, cell-based;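 further: growth inhibition of HCC1187 cells, read out with a cell viability assay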
Description: SANGER: Inhibition of human HCC1187 cell growth in a cell viability assay.

HCE-4 = assay type: functional, cell-based;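 further: cell viability assay measuring inhibition of growth in the human HCE-4 cell line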
Description: SANGER: Inhibition of human HCE-4 cell growth in a cell viability assay.

HCE-T = assay type: functional, cell-based;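 further: cell viability assay read-out, reporting inhibition of HCE-T cell growth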
Description: SANGER: Inhibition of human HCE-T cell growth in a cell viability assay.

HOP-62 = assay type: functional, cell-based;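 further: cell growth inhibition determined with a viability assay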
Description: SANGER: Inhibition of human HOP-62 cell growth in a cell viability assay.

HuTu80 = assay type: functional, cell-based, HUTU-80;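 further: growth inhibition of HuTu80 human cells, determined with a cell viability readout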
Description: SANGER: Inhibition of human HUTU-80 cell growth in a cell viability assay.

JVM-2 = assay type: functional, cell-based;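 further: growth inhibition of JVM-2 cells determined by a cell viability assay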
Description: SANGER: Inhibition of human JVM-2 cell growth in a cell viability assay.

JVM-3 = assay type: functional, cell-based;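 further: growth inhibition of human JVM-3 cells, read out with a cell viability assay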
Description: SANGER: Inhibition of human JVM-3 cell growth in a cell viability assay.

KALS-1 = assay type: functional, cell-based;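 further: growth inhibition of KALS-1 cells, determined with a cell viability assay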
Description: SANGER: Inhibition of human KALS-1 cell growth in a cell viability assay.

KARPAS-45 = assay type: functional, cell-based;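 further: inhibition of cell line growth, read out through a viability assay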
Description: SANGER: Inhibition of human KARPAS-45 cell growth in a cell viability assay.

KG-1 = assay type: functional, cell-based;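 further: growth inhibition of KG-1 cells, read out by a cell viability assay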
Description: SANGER: Inhibition of human KG-1 cell growth in a cell viability assay.

KGN = assay type: functional, cell-based;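 further: growth inhibition of KGN cells, read out with a cell viability assay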
Description: SANGER: Inhibition of human KGN cell growth in a cell viability assay.

KINGS-1 = assay type: functional, cell-based;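 further: cell viability assay measuring suppression of KINGS-1 cell growth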
Description: SANGER: Inhibition of human KINGS-1 cell growth in a cell viability assay.

KLE = assay type: functional, cell-based;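 further: growth inhibition of human KLE cells, read out with a cell viability assay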
Description: SANGER: Inhibition of human KLE cell growth in a cell viability assay.

KNS-42 = assay type: functional, cell-based;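 further: growth inhibition of KNS-42 cells, read out with a cell viability assay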
Description: SANGER: Inhibition of human KNS-42 cell growth in a cell viability assay.

KP-N-YS = assay type: functional, cell-based;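 further: cell viability assay measuring inhibition of cell line growth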
Description: SANGER: Inhibition of human KP-N-YS cell growth in a cell viability assay.

KS-1 = assay type: functional, cell-based;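 further: growth inhibition of KS-1 cells, read out with a cell viability assay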
Description: SANGER: Inhibition of human KS-1 cell growth in a cell viability assay.

KURAMOCHI = assay type: functional, cell-based;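 further: growth inhibition of KURAMOCHI cells, read out with a cell viability assay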
Description: SANGER: Inhibition of human KURAMOCHI cell growth in a cell viability assay.

L-428 = assay type: functional, cell-based
Description: SANGER: Inhibition of human L-428 cell growth in a cell viability assay.

LB1047-RCC = assay type: functional, cell-based;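 further: inhibition of cell growth, determined with a cell viability assay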
Description: SANGER: Inhibition of human LB1047-RCC cell growth in a cell viability assay.

LS-1034 = assay type: functional, cell-based
Description: SANGER: Inhibition of human LS-1034 cell growth in a cell viability assay.

MHH-PREB-1 = assay type: functional, cell-based;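 further: cell viability assay measuring inhibition of proliferation of human MHH-PREB-1 cells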
Description: SANGER: Inhibition of human MHH-PREB-1 cell growth in a cell viability assay.

ML-2 = assay type: functional, cell-based;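 further: growth inhibition of ML-2 cells, measured with a cell viability readout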
Description: SANGER: Inhibition of human ML-2 cell growth in a cell viability assay.

MN-60 = assay type: functional, cell-based;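 further: growth inhibition of the MN-60 cell line, determined with a cell viability assay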
Description: SANGER: Inhibition of human MN-60 cell growth in a cell viability assay.

MS-1 = assay type: functional, cell-based
Description: SANGER: Inhibition of human MS-1 cell growth in a cell viability assay.

MSTO-211H = assay type: functional, cell-based
Description: SANGER: Inhibition of human MSTO-211H cell growth in a cell viability assay.

NCI-H1155 = assay type: functional, cell-based;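 further: cell growth inhibition measured by a viability assay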
Description: SANGER: Inhibition of human NCI-H1155 cell growth in a cell viability assay.

NCI-H1355 = assay type: functional, cell-based;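 further: growth inhibition of human NCI-H1355 cells, read out by a cell viability assay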
Description: SANGER: Inhibition of human NCI-H1355 cell growth in a cell viability assay.

NCI-H1648 = assay type: functional, cell-based;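 further: cell viability assay measuring inhibition of NCI-H1648 cell growth, from the Sanger screening data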
Description: SANGER: Inhibition of human NCI-H1648 cell growth in a cell viability assay.

NCI-H209 = assay type: functional, cell-based;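 further: growth inhibition of human NCI-H209 cells, measured by a cell viability assay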
Description: SANGER: Inhibition of human NCI-H209 cell growth in a cell viability assay.

NCI-H510A = assay type: functional, cell-based;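 further: growth inhibition of NCI-H510A cells, read out with a cell viability assay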
Description: SANGER: Inhibition of human NCI-H510A cell growth in a cell viability assay.

NOMO-1 = assay type: functional, cell-based;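 further: growth inhibition of human NOMO-1 cells measured by a cell viability assay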
Description: SANGER: Inhibition of human NOMO-1 cell growth in a cell viability assay.

NTERA-2-cl-D1 = assay type: functional, cell-based;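 further: inhibition of cell growth, measured with a cell viability assay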
Description: SANGER: Inhibition of human NTERA-S-cl-D1 cell growth in a cell viability assay.

OMC-1 = assay type: functional, cell-based;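 further: growth inhibition of the OMC-1 cell line, measured by a cell viability assay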
Description: SANGER: Inhibition of human OMC-1 cell growth in a cell viability assay.

ONS-76 = assay type: functional, cell-based;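 further: growth inhibition of human ONS-76 cells, read out with a cell viability assay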
Description: SANGER: Inhibition of human ONS-76 cell growth in a cell viability assay.

OS-RC-2 = assay type: functional, cell-based;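 further: growth inhibition of human OS-RC-2 cells, measured by a cell viability assay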
Description: SANGER: Inhibition of human OS-RC-2 cell growth in a cell viability assay.

RPMI-8866 = assay type: functional, cell-based
Description: SANGER: Inhibition of human RPMI-8866 cell growth in a cell viability assay.

SCC-15 = assay type: functional, cell-based;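 further: growth inhibition of SCC-15 cells, read out with a cell viability assay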
Description: SANGER: Inhibition of human SCC-15 cell growth in a cell viability assay.

SF-539 = assay type: functional, cell-based;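 further: Read-out is a cell viability assay, with IC50 reflecting inhibition of cell growth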
Description: SANGER: Inhibition of human SF539 cell growth in a cell viability assay.

SJSA-1 = assay type: functional, cell-based;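 further: growth inhibition of human SJSA-1 cells, read out through a cell viability measurement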
Description: SANGER: Inhibition of human SJSA-1 cell growth in a cell viability assay.

SK-MEL-1 = assay type: functional, cell-based;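 further: growth inhibition of human SK-MEL-1 cells, read out by a cell viability assay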
Description: SANGER: Inhibition of human SK-MEL-1 cell growth in a cell viability assay.

SK-N-DZ = assay type: functional, cell-based;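 further: growth inhibition of the cancer cell line, read out through a viability assay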
Description: SANGER: Inhibition of human SK-N-DZ cell growth in a cell viability assay.

SK-N-FI = assay type: functional, cell-based;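 further: cell viability assay measuring growth inhibition of human SK-N-FI cells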
Description: SANGER: Inhibition of human SK-N-FI cell growth in a cell viability assay.

SK-NEP-1 = assay type: functional, cell-based;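 further: growth inhibition of human SK-NEP-1 cells, read out by a cell viability assay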
Description: SANGER: Inhibition of human SK-NEP-1 cell growth in a cell viability assay.

SNB-75 = assay type: functional, cell-based;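 further: cell viability assay measuring growth inhibition of human SNB-75 cells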
Description: SANGER: Inhibition of human SNB75 cell growth in a cell viability assay.

SW 962 = assay type: functional, cell-based
Description: SANGER: Inhibition of human SW962 cell growth in a cell viability assay.

A3-KAW = assay type: functional, cell-based
Description: SANGER: Inhibition of human A3-KAW cell growth in a cell viability assay.

A388 = assay type: functional, cell-based
Description: SANGER: Inhibition of human A388 cell growth in a cell viability assay.

C8166 = assay type: functional, cell-based
Description: SANGER: Inhibition of human C8166 cell growth in a cell viability assay.

TE-11 = assay type: functional, cell-based
Description: SANGER: Inhibition of human TE-11 cell growth in a cell viability assay.

TK-10 = assay type: functional, cell-based
Description: SANGER: Inhibition of human TK10 cell growth in a cell viability assay.

CAS-1 = assay type: functional, cell-based
Description: SANGER: Inhibition of human CAS-1 cell growth in a cell viability assay.

**Q.** Which IC50 (CTB-1) does the source give for `CC[C@]1(O)C[C@@H]2CN(CCc3c([nH]c4ccccc34)[C@@](C(=O)OC)(c3cc4c(cc3OC)N(C)[C@H]3[C@@](O)(C(=O)OC)[C@H](OC(C)=O)[C@]5(CC)C=CCN6CC[C@]43[C@@H]65)C2)C1` [VINBLASTINE] here?
**A.** 1.64 nM

**Q.** And the IC50 (CTV-1)?
**A.** 1.41 nM

**Q.** What about the IC50 (Calu-6) of the same compound?
**A.** > 100 nM

**Q.** What about the IC50 (D283 Med) of the same compound?
**A.** 39.1 nM

**Q.** What about the IC50 (D-502MG) of the same compound?
**A.** 23.5 nM

**Q.** What about the IC50 (DMS-114) of the same compound?
**A.** 20.9 nM

**Q.** And the IC50 (DMS-79)?
**A.** > 100 nM

**Q.** And the IC50 (DU-4475)?
**A.** > 100 nM

**Q.** What about the IC50 (EC-GI-10) of the same compound?
**A.** 3.53 nM

**Q.** And the IC50 (ES3)?
**A.** 2.77 nM

**Q.** And the IC50 (ES5)?
**A.** 3.88 nM

**Q.** What about the IC50 (EW-24) of the same compound?
**A.** 18 nM

**Q.** And the IC50 (EOL1)?
**A.** 1.26 nM

**Q.** And the IC50 (GCIY)?
**A.** 49.7 nM

**Q.** What about the IC50 (GOTO) of the same compound?
**A.** 8.21 nM

**Q.** And the IC50 (HCC1187)?
**A.** 2.75 nM

**Q.** What about the IC50 (HCE-4) of the same compound?
**A.** 18.1 nM

**Q.** What about the IC50 (HCE-T) of the same compound?
**A.** 20 nM

**Q.** And the IC50 (HOP-62)?
**A.** > 100 nM

**Q.** And the IC50 (HuTu80)?
**A.** 12.3 nM

**Q.** What about the IC50 (JVM-2) of the same compound?
**A.** > 100 nM

**Q.** And the IC50 (JVM-3)?
**A.** 1.7 nM

**Q.** What about the IC50 (KALS-1) of the same compound?
**A.** 7.79 nM

**Q.** What about the IC50 (KARPAS-45) of the same compound?
**A.** 1.79 nM

**Q.** And the IC50 (KG-1)?
**A.** 18.4 nM

**Q.** And the IC50 (KGN)?
**A.** 33.3 nM

**Q.** And the IC50 (KINGS-1)?
**A.** 9.32 nM

**Q.** And the IC50 (KLE)?
**A.** > 100 nM

**Q.** And the IC50 (KNS-42)?
**A.** 18.7 nM

**Q.** What about the IC50 (KP-N-YS) of the same compound?
**A.** 22.9 nM

**Q.** What about the IC50 (KS-1) of the same compound?
**A.** 7.99 nM

**Q.** And the IC50 (KURAMOCHI)?
**A.** > 100 nM

**Q.** What about the IC50 (L-428) of the same compound?
**A.** > 100 nM

**Q.** What about the IC50 (LB1047-RCC) of the same compound?
**A.** 40.3 nM

**Q.** And the IC50 (LS-1034)?
**A.** > 100 nM

**Q.** And the IC50 (MHH-PREB-1)?
**A.** 1.49 nM

**Q.** And the IC50 (ML-2)?
**A.** 8.65 nM

**Q.** And the IC50 (MN-60)?
**A.** 29.4 nM

**Q.** What about the IC50 (MS-1) of the same compound?
**A.** 30.8 nM

**Q.** What about the IC50 (MSTO-211H) of the same compound?
**A.** 12.2 nM

**Q.** And the IC50 (NCI-H1155)?
**A.** 43.7 nM

**Q.** And the IC50 (NCI-H1355)?
**A.** 19.5 nM

**Q.** And the IC50 (NCI-H1648)?
**A.** 5.52 nM

**Q.** What about the IC50 (NCI-H209) of the same compound?
**A.** 13.1 nM

**Q.** And the IC50 (NCI-H510A)?
**A.** 2.75 nM

**Q.** What about the IC50 (NOMO-1) of the same compound?
**A.** 7.86 nM

**Q.** What about the IC50 (NTERA-2-cl-D1) of the same compound?
**A.** 5.89 nM

**Q.** What about the IC50 (OMC-1) of the same compound?
**A.** > 100 nM

**Q.** And the IC50 (ONS-76)?
**A.** 3.74 nM

**Q.** What about the IC50 (OS-RC-2) of the same compound?
**A.** 69.8 nM

**Q.** And the IC50 (RPMI-8866)?
**A.** 1.97 nM

**Q.** What about the IC50 (SCC-15) of the same compound?
**A.** 23.1 nM

**Q.** What about the IC50 (SF-539) of the same compound?
**A.** 1.21 nM

**Q.** And the IC50 (SJSA-1)?
**A.** 12.1 nM

**Q.** What about the IC50 (SK-MEL-1) of the same compound?
**A.** 67.3 nM

**Q.** What about the IC50 (SK-N-DZ) of the same compound?
**A.** 37.4 nM

**Q.** What about the IC50 (SK-N-FI) of the same compound?
**A.** > 100 nM

**Q.** And the IC50 (SK-NEP-1)?
**A.** 1.5 nM

**Q.** And the IC50 (SNB-75)?
**A.** 11.2 nM

**Q.** What about the IC50 (SW 962) of the same compound?
**A.** 19.4 nM

**Q.** What about the IC50 (A3-KAW) of the same compound?
**A.** 4.32 nM

**Q.** What about the IC50 (A388) of the same compound?
**A.** 6.91 nM

**Q.** What about the IC50 (C8166) of the same compound?
**A.** 27 nM

**Q.** What about the IC50 (TE-11) of the same compound?
**A.** 5.13 nM

**Q.** And the IC50 (TK-10)?
**A.** 42.4 nM

**Q.** What about the IC50 (CAS-1) of the same compound?
**A.** 93.1 nM
